Source: patent publication US20250019379A1, “NEW CRYSTAL FORM OF COMPOUND, AND PREPARATION METHOD THEREFOR AND USE THEREOF” (E-nitiate Biopharmaceuticals (Hangzhou) Co., Ltd, priority 2021, published 2025)
Values joined by “and” are separate entries in the source; they are usually repeats but may differ in a detail not shown here. Equal values may be shown once. Marks after values point to notes of the source that are not given here.

Columns and labels:
[1] = tested on: psoriasis animal model; assay: Psoriasis animal model (imiquimod cream induced); assay type: in vivo, C57/BL 6J mice; details: 30 mg/kg oral twice a day
Excerpt: C57/BL 6J mice, 75, female, 7-8 weeks old, weight 18 g-20 g. The animals were from Zhejiang Weitong Lihua Experimental Animal Technology Co., Ltd. (SCXK (Zhejiang) 2019-0001), experimental animal production certificate number 20210107Abzz0619000247; experimental animal use license number: SYXK (Shanghai) 2020-0001 (Via Biotechnology (Shanghai Co., Ltd).
Modeling and administration method: Use depilatory cream to remove hair from an area of about 2 cm×3 cm on the back of each animal. Control the application time of depilatory cream within 2 minutes. Wash the depilated area with warm water, wash off the depilatory agent, and use immediately. Dry the animal's hair with a hair dryer, and place the animal on a constant-temperature electric blanket at 37° C. for 1 h-2 h. After the animal moves freely, it is placed in a cage for normal rearing and recovery for 1 day (if any animal has red, swollen and damaged skin after hair removal, remove it). On the second day, 54 animals with normal skin were selected and randomly grouped according to body weight, with 9 animals in each group, a total of 6 groups. Each animal in the G2-G6 group was evenly applied with 60 mg (60 μL) of 5 wt % imiquimod cream (Aldara) on the back every day for seven consecutive days.
Skin thickness (double-layer): Use a vernier caliper to measure the double-layer thickness of the back skin before drug administration and modeling, and on days 1, 3, 5, and 7 after drug administration.
PASI score: The condition score refers to the clinical PASI scoring standard, and scores three indicators: erythema, scale, and thickness. The total score is 12 points. The scoring standards are as follows:
Erythema: 0 points, none; 1 points, slight: light red; 2 points, moderate: red; 3 points, significant: dark red; 4 points, very obvious: extremely deep red.
Scaling: 0 points, none; 1 point, slight: there are scales on part of the epidermis, mainly fine scales; 2 points, moderate: most of the skin surface is completely or incompletely covered with scales, in a flaky form; 3 points, Significant: almost all skin is covered with scales, and the scales are thick and layered; 4 points, very obvious: all the skin is covered with scales, and the scales are thick and layered.
Plaque thickening degree: 0 points, none: flush with normal skin; 1 points, slight: slightly higher than the skin surface: 2 points, moderate: moderately raised, with round or sloped plaque edges; 3 points, obvious Score: The plaque is hypertrophic and the bulge is obvious; 4 points, very significant: it is highly thickened and the bulge is very obvious.
Skin proliferation inhibition rate (%)=1−[(skin thickness of the treatment group on the 7th day−skin thickness of the blank control group on the 7th day)/skin thickness of the negative control group on the 7th day−skin thickness of the blank control group on the 7th day)]%.
All data are expressed as Mean t SEM. The statistical analysis software SPSS23.0 was used to conduct normal distribution and homogeneity of variance tests on the data. Based on the results, the single-factor analysis of variance method was selected and the homogeneity of variance test was selected based on the results. *P<0.05 will be considered a statistically significant difference.

[2] = tested on: atopic dermatitis animal model; assay: Atopic dermatitis animal model (dinitrochlorobenzene induced); assay type: in vivo, BALB/C mice; details: for Inhibition rate of auricular thickening / Inhibition rate of skin thickening: 10th day of treatment
Excerpt: BALB/C mice, 55 pieces, female, were 6 weeks old at the time of purchase and 8 weeks old at the time of experiment, weighing 18 g-20 g. The animals were from Shanghai Lingchang Biotechnology Co, Ltd (SCXK (Shanghai) 2018-0003), experimental animal production certificate number 20180003012342: experimental animal use license number; SYXK(Shanghai)2020-0001 (Via Biotechnology (Shanghai) Ltd.).
Modeling and administration method; Use depilatory cream to remove the hair of an area of about 5 cm×2 cm from the top of the head to the back of each animal. The application time of the depilatory cream should be controlled within 2 minutes. Wash the depilated area with warm water and wash off the depilatory agent, immediately use a hair dryer to dry the animal's hair, and place the animal on a 37° C. constant-temperature electric blanket for 1 h-2 h. After the animal moves freely, place it in a breeding cage and recover for 1 day (if the animal's skin is red, swollen and damaged after hair removal, it will its elimination). On the second day, 42 animals with normal skin were selected and randomly divided into groups according to body weight, with 6 animals in each group, totaling 7 groups. Except for the G1 normal control group, each animal in the other groups was evenly smeared with 200 μL of 0.5 wt % dinitrochlorobenzene solution (the solvent was acetone and olive oil with a mass ratio of 3:1) on the back and auricle for three consecutive days every day. Induction (the first stage of induction), the second stage of induction started after 14 days, and was induced with 1 wt % dinitrochlorobenzene solution (the solvent was acetone and olive oil with a mass ratio of 3:1) every three days until the end of the experiment, start treatment and administration at the same time, and group administration is shown in Table 6.
Skin thickness (double layer): Use a vernier caliper to measure the double layer thickness of the back skin on the 1 day before modeling, and on the 14th, 17th, 20th, 23rd, 26th, and 28th days after modeling.
Auricle thickness: Use a vernier caliper to measure the thickness of the right auricle 1 day before modeling, and on days 14, 17, 20, 23, 26, and 28 after modeling.
AD-SI score: The condition score refers to the clinical SI scoring standard, and scores three indicators: skin color/erythema, scaly erythema, scaly/peeling/lichenification, thickening, and thickening/edema degree. The total score is 12 points. Scoring standard as follows:
Erythema/skin color: 0 points, none; 1 points, slight: light red; 2 points, moderate: red; 3 points, significant: dark red; 4 points, very obvious: extremely deep red.
Scaling/peeling/lichenification: 0 points, none; 1 point, slight: there are scales/peeling/lichenification on part of the epidermis, mainly subtle; 2 points, moderate: most of the skin surface is completely or incompletely covered with Scaling/peeling/lichenification, flaky; 3 points, significant: almost all skin is covered with scales/peeling/lichenification, and the scales/peeling/lichenification are thick and layered; 4 points, very obvious: all skin is covered with Scaling/peeling/lichenification, very thick and layered.
Thickening/edema: 0 points, none: flush with normal skin; 1 points, slight: slightly higher than the normal skin surface: 2 points, moderate: moderately raised, with round or sloped plaque edges: 3 points, obvious Score: The plaque is hypertrophic and the bulge is obvious; 4 points, very significant: it is highly thickened and the bulge is very obvious. Skin/auricle hyperplasia inhibition rate (%)=1−[(skin/auricle thickness of the treatment group−skin/auricle thickness of the blank control group)/skin/auricle thickness of the negative control group−skin/auricle of the blank control group thickness)]%.
All data are expressed as Mean±SD or Mean±SEM. Use the statistical analysis software SPSS23.0 to conduct normal distribution and homogeneity of variance tests on the data. […]

[3] = 30 mg/kg oral twice a day, Day 0
[4] = 30 mg/kg oral twice a day, Day 1
[5] = 30 mg/kg oral twice a day, Day 4
[6] = 30 mg/kg oral twice a day, Day 7
[7] = 30 mg/kg oral twice a day, Day 10
[8] = 10 mg/kg oral twice a day, Day 0
[9] = 10 mg/kg oral twice a day, Day 1
[10] = 10 mg/kg oral twice a day, Day 4
[11] = 10 mg/kg oral twice a day, Day 7
[12] = 10 mg/kg oral twice a day, Day 10

**Q.** With `C[C@@H]1CCN(C(=O)CC#N)C[C@@H]1N(C)c1ncnc2[nH]ccc12` [Tofacitinib, reference compound] as the molecule, how does the “Inhibition rate of skin thickening” value ([1]; 7th day of treatment) read?
**A.** 69.2%

**Q.** What about the “Average skin thickness (double layer)” value ([1]; Day 0) of the same molecule?
**A.** 0.51 ± 0.01 mm

**Q.** And the PASI score ([1]; Day 0)?
**A.** 0.0 points

**Q.** What about the “Average skin thickness (double layer)” value ([1]; Day 1) of the same molecule?
**A.** 0.66 ± 0.02 mm

**Q.** What about the PASI score ([1]; Day 1) of the same molecule?
**A.** 0.0 points

**Q.** And the “Average skin thickness (double layer)” value ([1]; Day 3)?
**A.** 1.28 ± 0.09** mm

**Q.** What about the PASI score ([1]; Day 3) of the same molecule?
**A.** 4.6 ± 0.50 points

**Q.** And the “Average skin thickness (double layer)” value ([1]; Day 5)?
**A.** 1.09 ± 0.06*** mm

**Q.** What about the PASI score ([1]; Day 5) of the same molecule?
**A.** 4.9 ± 0.42*** points

**Q.** What about the “Average skin thickness (double layer)” value ([1]; Day 7) of the same molecule?
**A.** 1.05 ± 0.04*** mm and 1.05 mm

**Q.** What about the PASI score ([1]; Day 7) of the same molecule?
**A.** 2.8 ± 0.43*** points

**Q.** What about the “Inhibition rate of auricular thickening” value ([2]; 30 mg/kg oral twice a day) of the same molecule?
**A.** 25.86%

**Q.** And the “Inhibition rate of skin thickening” value ([2]; 30 mg/kg oral twice a day)?
**A.** 27.86%

**Q.** And the AD-SI score [2, 3]?
**A.** 0.00 points

**Q.** What about the Average auricle thickness [2, 3] of the same molecule?
**A.** 0.19 ± 0.01 mm

**Q.** What about the “Average skin thickness (double layer)” value [2, 3] of the same molecule?
**A.** 0.63 ± 0.03 mm

**Q.** And the AD-SI score [2, 4]?
**A.** 0.00 points

**Q.** What about the Average auricle thickness [2, 4] of the same molecule?
**A.** 0.22 ± 0.01 mm

**Q.** What about the “Average skin thickness (double layer)” value [2, 4] of the same molecule?
**A.** 0.99 ± 0.03 mm

**Q.** And the AD-SI score [2, 5]?
**A.** 0.17 ± 0.41 points

**Q.** And the Average auricle thickness [2, 5]?
**A.** 0.28 ± 0.01 mm

**Q.** And the “Average skin thickness (double layer)” value [2, 5]?
**A.** 1.13 ± 0.1 mm

**Q.** And the AD-SI score [2, 6]?
**A.** 7.17 ± 0.98 points

**Q.** What about the Average auricle thickness [2, 6] of the same molecule?
**A.** 0.44 ± 0.03 mm

**Q.** And the “Average skin thickness (double layer)” value [2, 6]?
**A.** 1.78 ± 0.11 mm

**Q.** And the AD-SI score [2, 7]?
**A.** 6.33 ± 1.37 points

**Q.** And the Average auricle thickness [2, 7]?
**A.** 0.64 ± 0.05 mm and 0.64 mm

**Q.** And the “Average skin thickness (double layer)” value [2, 7]?
**A.** 2.08 ± 0.13 mm and 2.08 mm

**Q.** `CC[C@@H]1CN(C(=O)NCC(F)(F)F)C[C@@H]1c1cnc2cnc3[nH]ccc3n12` [Upatinib, Upadacitinib, reference compound] was tested. Which “Inhibition rate of auricular thickening” value ([2]; 10 mg/kg oral twice a day) did it give?
**A.** 24.14%

**Q.** What about the “Inhibition rate of skin thickening” value ([2]; 10 mg/kg oral twice a day) of the same molecule?
**A.** 20.40%

**Q.** And the AD-SI score [2, 8]?
**A.** 0.00 points

**Q.** What about the Average auricle thickness [2, 8] of the same molecule?
**A.** 0.20 ± 0.01 mm

**Q.** What about the “Average skin thickness (double layer)” value [2, 8] of the same molecule?
**A.** 0.60 ± 0.02 mm

**Q.** What about the AD-SI score [2, 9] of the same molecule?
**A.** 0.00 points

**Q.** And the Average auricle thickness [2, 9]?
**A.** 0.24 ± 0.01 mm

**Q.** What about the “Average skin thickness (double layer)” value [2, 9] of the same molecule?
**A.** 0.89 ± 0.04 mm

**Q.** And the AD-SI score [2, 10]?
**A.** 1.00 ± 0.00 points

**Q.** And the Average auricle thickness [2, 10]?
**A.** 0.32 ± 0.03**^ mm

**Q.** And the “Average skin thickness (double layer)” value [2, 10]?
**A.** 1.07 ± 0.05 mm

**Q.** What about the AD-SI score [2, 11] of the same molecule?
**A.** 6.50 ± 1.05 points

**Q.** And the Average auricle thickness [2, 11]?
**A.** 0.51 ± 0.05 mm

**Q.** What about the “Average skin thickness (double layer)” value [2, 11] of the same molecule?
**A.** 2.06 ± 0.25 mm

**Q.** What about the AD-SI score [2, 12] of the same molecule?
**A.** 7.17 ± 1.47 points

**Q.** What about the Average auricle thickness [2, 12] of the same molecule?
**A.** 0.65 ± 0.03 mm and 0.65 mm

**Q.** What about the “Average skin thickness (double layer)” value [2, 12] of the same molecule?
**A.** 2.23 ± 0.14 mm and 2.23 mm
